Entries after “also recorded” stand apart in the source; their conditions may differ. Counter-ions that a name gives are not always drawn. Like-named read-outs stand apart in the source and are kept apart here.
Tests used:
PD-L1 [1] = target: T1, PD-L1 (Homo sapiens, UniProt Q9NZQ7); assay: NMR binding assay (1H and 1H-15N HMQC); conditions: molar ratio 1:1
T1 construct: The PD-L1 protein (18–134) was expressed in the Escherichia coli BL21 (DE3); made in house; host or cells: Escherichia coli BL21 (DE3)
T1 sequence (Q9NZQ7 18-134): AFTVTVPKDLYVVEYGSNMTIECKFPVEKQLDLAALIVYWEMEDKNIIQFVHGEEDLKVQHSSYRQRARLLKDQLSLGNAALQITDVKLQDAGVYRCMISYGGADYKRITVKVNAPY
Excerpt: To investigate if our synthesized analogs are capable of disrupting PD-1/PD-L1 binding, we performed our previously described nuclear magnetic resonance (NMR) assay.[16] […] The PD-L1 dimerization causes peaks of the ^1H aliphatic part PD-L1 spectrum to flatten (peak at −0.4 ppm) or disappear in the case of peaks from ^1H–^15N HMQC spectrum. Dimerization of PD-L1, in turn, prevents its binding to the PD-1.
For NMR measurements, the buffer was exchanged by gel filtration to PBS pH 7.4. 10% (v/v) of D2O was added to the samples to provide the lock signal. All spectra were recorded at 300 K using a Bruker Avance III 600 MHz spectrometer equipped with the nitrogen cryo-probe head.
Determination of binding of compounds to PD-L1 was carried out with the ^1H NMR. […] The molecular weight of each complex was estimated from relaxation time analysis, which can only be explained by the compound-induced PD-L1 dimerization. No significant changes were observed upon the addition of the PD-1 with the tested compounds.

[2] = In vitro stability in human serum; assay type: in vitro ADME; conditions: for stability in serum (4h): supplementary csv, unit not given; for stability in serum after 4 h: radiochemical purity by TLC, triplicate
Protocol: (§1) In vitro stability of [^18F]4a and [^18F]9a was evaluated in Tween-80 or PBS (original diluent) and serum. After purification, samples of tracers were mixed with equal volumes of the formulated tracer and solution in which stability was evaluated (100 μL tracer solution with 100 μL Tween-80/PBS) and measured every 30 min for a 4 h period. The radiochemical purity (RCP) of labeled products was measured using thin-layer chromatography (TLC) (silica TLC plates on aluminum, MerckMilipore, USA). The TLCs were developed with appropriate MeOH/DCM eluent system; 10% MeOH/DCM + NH3 for [^18F]4a and 10% MeOH/DCM for [^18F]9a. The distribution of the radioactivity among the TLC plate was measured on GE Amersham Typhoon Scanner using phosphorus plates and ImageQuant TL 1D software for data processing (both GE Healthcare Life Science, USA). The experiment was performed in triplicate.

[3] = Experimental lipophilicity of 18F tracers; assay type: physicochemical; conditions: for logP / lipophilicity (in words): 18F tracer; for logP / logD: triplicate; for logP: read-out: experimental log P; for logD: pH 7.4, 18F tracer, read-out: experimental log D7.4
PD-1/PD-L1 = target: T2, PD-1/PD-L1 (Homo sapiens, UniProt Q9NZQ7); assay: Promega PD-1/PD-L1 immune checkpoint blockade assay (Jurkat reporter T cells + aAPCs); assay type: cell-based; conditions: Jurkat reporter T cells cocultured with aAPCs; an estimation because of cytotoxicity at higher concentrations
T2 construct: host or cells: CHO-K1 aAPCs (PD-L1) and Jurkat effector cells (PD-1)
T2 sequence (Q9NZQ7 19-290): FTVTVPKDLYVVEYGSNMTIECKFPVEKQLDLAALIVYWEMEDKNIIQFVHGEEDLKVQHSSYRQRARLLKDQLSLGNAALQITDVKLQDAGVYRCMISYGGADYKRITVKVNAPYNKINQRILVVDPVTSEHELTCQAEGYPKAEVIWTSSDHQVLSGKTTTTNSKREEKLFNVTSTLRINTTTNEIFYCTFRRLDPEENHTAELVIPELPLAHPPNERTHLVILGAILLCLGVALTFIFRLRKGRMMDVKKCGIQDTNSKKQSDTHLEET
Protocol: Additionally, aAPCs and ECs were propagated in a constant presence of hygromycin B (50 μg/mL) and G418 (250 μg/mL) to provide a stable expression of the introduced genetic constructs.
The aAPCs were seeded in white flat bottom 96-well plates at the density of 10 000 cells/well in the culture medium 24 h before the assay and grown overnight in a 5% CO2 37 °C incubator. On the day of the experiment, serial dilutions of tested compounds were prepared first in DMSO and then formulated in RPMI 1640-containing 1% FBS to keep the constant DMSO concentration of 0.1% (v/v). As a negative control, DMSO was used in assay buffer at the concentration of 0.1% (v/v). As a positive control, a serial dilution of durvalumab (an anti-PD-L1 antibody) in assay buffer was used. Meanwhile, the medium of the aAPCs cells was removed, and the compounds’ dilutions were added to the plate (40 μL/well). […] The cell suspension was distributed over the inner 60 wells of the assay plate (20 000 cells/well, 40 μL). The plates were incubated for 6 h in a 5% CO2 incubator at 37 °C. Once the assay time was over, the plate was taken out of the incubator to equilibrate to room temperature. Before measurements, a 75 μL per well of Bio-Glo luciferase substrate was added to the inner 60 wells of the plate. […] The measurement was done on a Spark microplate reader (Tecan), using the standard settings for luminescence reading.

[4] = In vitro stability in formulation solution; assay type: physicochemical; conditions: for stability in formulation solution (4h): supplementary csv, unit not given; for stability in formulation solution after 4 h: radiochemical purity by TLC, triplicate
Protocol: as §1

PD-L1 [5] = target: T1, PD-L1; assay: Microscale thermophoresis (MST) affinity assay; assay type: binding
Protocol: The PD-L1 protein (18–134) was expressed in the Escherichia coli BL21 (DE3) and purified as described previously (Zak et al., 2016).[8] Protein expression was induced with 1 mM isopropyl β-D-1-thiogalactopyranosid (IPTG) at OD600 of 0.8 and the cells were cultured overnight at 37 °C. Afterward protein was refolded by drop-wise dilution into solution containing 0.1 M Tris pH 8.0, 1 M L-arginine hydrochloride, 0.25 mM oxidized glutathione, and 0.25 mM reduced glutathione. After refolding, protein was dialyzed 3 times against buffer containing 10 mM Tris pH 8.0 and 20 mM NaCl. Finally, PD-L1 was purified by SEC (size-exclusion chromatography) on HiLoad 26/600 Superdex 75 column (GE Healthcare) equilibrated with PBS pH 7.4.
PD-L1 was expressed as for NMR experiment. It was diluted to 10 μM and labelled with Protein Labeling Kit RED-NHS 2nd Generation from Nanotemper according to the manufacturer’s guidelines. The degree of labelling for PD-L1 was 0.74, which is with agreement with the protocol. Labelled PD-L1 at 100 nM concentration was then mixed with independent series of 4a and 9a compound dilution series (n = 4) and incubated for 30 min at RT. Next, samples were transferred to dedicated 384-well plate and measured on Diantus equipped with pico detector using auto-excitation and 5 s pulse (Nanotemper) for the affinity measurements. The results were exported, averaged, and fitted in Mathematica 12 using following equations: [drawing 1] where: FB—fraction bound, [A]—concentration of unlabeled titrated partner, [B]—concentration of fluorescent labeled partner that is fixed, [AB]—concentration of bound complex of A and B, Kd—equilibrium dissociation constant.

PD-1/PD-L1 complex = target: T3, PD-1/PD-L1 complex (Homo sapiens, UniProt Q9NZQ7); assay: HTRF PD-1/PD-L1 assay (Cisbio Human PD1/PD-L1 biochemical binding assay); conditions: disruption of the PD-1/PD-L1 complex; two independent dilution series
T3 construct: purchased Cisbio Bioassays
T3 sequence (Q9NZQ7 19-238 limits assumed, one chain of several): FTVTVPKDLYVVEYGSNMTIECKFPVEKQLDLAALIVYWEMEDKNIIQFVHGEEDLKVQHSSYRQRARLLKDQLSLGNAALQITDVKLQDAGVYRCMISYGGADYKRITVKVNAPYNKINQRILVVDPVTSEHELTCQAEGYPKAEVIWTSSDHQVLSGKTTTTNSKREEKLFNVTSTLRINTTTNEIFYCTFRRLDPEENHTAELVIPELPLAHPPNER
Protocol: Presence of inhibitors (small molecules, proteins, and so forth) that disrupt the binding decreases the resulting signal allowing the assessment of the inhibitory activity of tested inhibitors via IC50 (the half maximal inhibitory concentration).
The HTRF assay was performed using the certified Cis-Bio assay kit at 20 μL final volume using their standard protocol as described by Musielak et al.[34] Measurements were performed on individual dilution series to determine the half maximal inhibitory concentration (IC50) of tested compounds. After mixing all components according to the Cis-Bio protocol, the plate was incubated for 2 h at RT. […] For the compounds with IC50 values that were too high due to, e.g., solubility issues, a “dissociation value” at the concentration of 50 μM is presented for the sake of comparability to other inhibitors.

PD-L1 [6] = target: T1, PD-L1; design: method as in PMID 17985865; conditions: by means of NMR, HTRF, and cellular assays; cited from earlier work
murine PD-L1 = tested on: murine PD-L1; design: method as in PMID 17985865; conditions: by means of NMR, HTRF, and cellular assays; cited from earlier work
[7] = tested on: H358 (lung adenocarcinoma) PD-L1^+/– tumor tissue sections; assay: Autoradiography with H358 PD-L1+/- tumor tissue sections; assay type: binding, human; conditions: PD-L1+ vs counterpart H358 tumor sections
Protocol: (§2) Formalin-fixed paraffin-embedded xenograft tumors (ES2 PD-L1^+/– and H358 PD-L1^+/–) were cut into 4 μm slices and placed on the glass slides. Before each immunohistochemistry and autoradiography experiment, tissue slides were deparaffinized by oven incubation (min 1 h at 60 °C) and xylene washes, then rehydrated through graded alcohol and distilled water. Additionally, heat-induced antigen retrieval with 10 mM citrate buffer pH = 6.0 was performed (15 min 400 W). Snap-frozen human tonsil tissue was a gift from the Pathology Department (UMCG). Before each experiment, they were incubated in cold acetone for 10 min.
(§3) For autoradiography, antigen retrieval and acetone wash were followed by 30 min of incubation with a freshly formulated tracer at a concentration of 0.2 MBq/mL. After washing twice with cold PBS and once with water, slides were left to dry and exposed to phosphorus plates. The image was recorded on GE Amersham Typhoon Biomolecular Imager and analyzed with ImageQuant TL 1D software (both GE Healthcare Life Science, USA).

[8] = tested on: ES2 (ovarian carcinoma) PD-L1^+/– tumor tissue sections; assay: Autoradiography with ES2 PD-L1+/- tumor tissue sections; assay type: binding, human
Protocol: as §2, §3

PD-L1 [9] = conditions: PD-L1 nanobody, ca. 15 kDa; cited from earlier work
[10] = MST, labelled PD-L1 100 nM, n = 4, read-out: kD to hPD-L1
[11] = supplementary csv, unit inferred, read-out: MST Kd

With `Cc1c(COc2cc(OCc3cccc(C#N)c3)c(CN3CC(O)C[C@@H]3C(=O)O)cc2Cl)cccc1-c1ccc2c(c1)OCCO2` (stereo in doubt) [9b, (2R,4S)-1-(5-Chloro-2-((3-cyanobenzyl)oxy)-4-((3-(2,3-dihydrobenzo[b][1,4]dioxin-6-yl)-2-methylbenzyl)oxy)benzyl)-4-hydroxypyrrolidine-2-carboxylic Acid, reference compound] as the molecule, how does the “effect on PD-L1 in 1H NMR and 1H-15N HMQC spectra” value (PD-L1 [1]) read?
Its value is “induces dimerization of PD-L1”.

Which “stability in serum (4h)” value [2] does the source give for `N#Cc1c(-c2ccc(F)cc2)csc1OCc1ccc(CN)cc1` [4a, 2-((4-(Aminomethyl)benzyl)oxy)-4-(4-fluorophenyl)thiophene-3-carbonitrile Hydrochloride] here?
Its value is 93.9.

What about the “effect on PD-L1 in 1H NMR and 1H-15N HMQC spectra” value (PD-L1 [1]) of the same molecule?
Its value is “induces dimerization of PD-L1”.

And the logP [3]?
The logP was 3.6.

And the logD [3]?
Its logD is 3.9.

What about the EC50 (PD-1/PD-L1) of the same molecule?
Its EC50 is 2700 nM.

What about the “stability in formulation solution (4h)” value [4] of the same molecule?
Its value is 97.5.

And the Kd (PD-L1 [5]; [10])?
The Kd was roughly 27 nM.

What about the Kd (PD-L1 [5]; [11]) of the same molecule?
Its Kd is 26.9 nM.

And the IC50 (PD-1/PD-L1 complex)?
Its IC50 is 4.97 nM.

For `Cc1c(COc2cc(OCc3cccc(C#N)c3)c(CN3C[C@@H](F)C[C@@H]3C(=O)O)cc2Cl)cccc1-c1ccc2c(c1)OCCO2` [9a, (2R,4S)-1-(5-Chloro-2-((3-cyanobenzyl)oxy)-4-((3-(2,3-dihydrobenzo[b][1,4]dioxin-6-yl)-2-methylbenzyl)oxy)benzyl)-4-fluoropyrrolidine-2-carboxylic Acid], which “stability in serum (4h)” value [2] is on record?
The value was 88.7.

What about the logP [3] of the same molecule?
The logP was 5.2.

What about the logD [3] of the same molecule?
Its logD is 6.5.

And the EC50 (PD-1/PD-L1)?
The EC50 was 880 nM.

What about the “stability in formulation solution (4h)” value [4] of the same molecule?
Its value is 97.3.

What about the Kd (PD-L1 [5]; [10]) of the same molecule?
Its Kd is roughly 8 nM.

And the Kd (PD-L1 [5]; [11])?
Its Kd is 8.36 nM.

And the IC50 (PD-1/PD-L1 complex)?
The IC50 was 2.01 nM.

With `C[C@@H](O)[C@H](NC(=O)N[C@@H](CC(N)=O)c1nc([C@@H](N)CO)no1)C(=O)O` [CA-170] as the molecule, how does the “direct binding to human PD-L1” value (PD-L1 [6]) read?
The value was “not a direct binder”.

What about the “direct binding to murine PD-L1” value (murine PD-L1) of the same molecule?
The value was “not a direct binder”.

For `N#Cc1c(-c2ccc([18F])cc2)csc1OCc1ccc(CN)cc1` [[^18F]4a], which “stability in serum after 4 h” value [2] is on record?
Its value is 93.9 ± 0.5%.

And the “stability in human serum, minimal value” [2]?
Its value is 93%.

What about the “lipophilicity (in words)” value [3] of the same molecule?
Its value is “moderate lipophilicity”.

What about the logP [3] of the same molecule?
Its logP is 3.6 ± 0.4.

What about the logD [3] of the same molecule?
Its logD is 3.9 ± 0.9.

What about the “stability in formulation solution after 4 h” value [4] of the same molecule?
The value was 97.5 ± 0.5%.

What about the “higher uptake in PD-L1+ H358 tumors” value [7] of the same molecule?
The value was 40–55%.

What about the background uptake ([8]; compared with [^18F]9a) of the same molecule?
Its background uptake is “lower background uptake than [^18F]9a”.

And the “discrimination between wild-type and knock-out ES2 slides” value ([8]; paraffin-embedded sections)?
The value was “failed to discriminate between wild-type and knock-out; also recorded: unable to bind specifically”.

With `Cc1c(COc2cc(OCc3cccc(C#N)c3)c(CN3C[C@@H]([18F])C[C@@H]3C(=O)O)cc2Cl)cccc1-c1ccc2c(c1)OCCO2` [[^18F]9a] as the molecule, how does the “stability in serum after 4 h” value [2] read?
The value was 88.7 ± 5.7%.

What about the “stability in human serum, minimal value” [2] of the same molecule?
Its value is 82%.

And the “lipophilicity (in words)” value [3]?
The value was “high lipophilicity”.

And the logP [3]?
The logP was 5.2 ± 0.6.

What about the logD [3] of the same molecule?
Its logD is 6.5 ± 0.2.

And the “stability in formulation solution after 4 h” value [4]?
Its value is 97.3 ± 1.1%.

And the “higher uptake in PD-L1+ H358 tumors” value [7]?
The value was 40–55%.

Which pKd (PD-L1 [9]) does the source give for KN035: PD-L1 nanobody, ca. 15 kDa here?
Its pKd is 8.5.
